Experimental data from patent publication US20130338220A1, “COMPOSITIONS, DOSAGES, AND METHODS OF USING TETRAHYDROCANNABINOL DERIVATIVES” (priority 2010, published 2013).

Key:
[1] = multiple ascending dose study of immediate release ajulemic acid three times a day, adverse events; type: in vivo, human
Procedure: FIG. 2 is a graph of the concentration of ajulemic acid as a function of time in a multiple ascending dose study in human subjects of ajulemic acid administered in an immediate release formulation three times a day (6-6-12 hours). For the 80<=60 mg data, the first four doses were 80 mg and all remaining doses were 60 mg.
(§1) Administration of immediate release formulations of the THC derivative ajulemic acid may result in adverse events. Representative pharmacokinetic data for administration of ajulemic acid in immediate release form is shown in FIG. 1 (single ascending dose) and 2 (multiple ascending dose). The data in FIG. 2 are based on greater sampling days 1 and 7. In the single dose study, adverse events were observed when 80 mg or higher was administered. In the multiple dose study, adverse events were observed when 40, 60, and 80 mg was administered three times a day. In the single ascending dose study in fasted subjects, the most frequently occurring adverse events were dizziness (33.3%); nausea (20.8%); vomiting (14.6%); pallor (12.5%); dry mouth; headache; somnolence; tremor; and disorientation (10.4%). Other adverse events include tachycardia, fatigue, feeling drunk, paraesthesia, and euphoric mood (6.3%); and muscle spasms, muscle tightness, disturbance in attention, deja vu, and altered mood (4.2%). In the multiple ascending dose study, the most frequently occurring adverse events were dizziness (38.9%); nausea and somnolence (16.7%); and dry mouth, fatigue, feeling abnormal, anorexia, inappropriate affect, and orthostatic hypotension (11.1%).

[2] = single ascending dose study of immediate release ajulemic acid, adverse events; type: in vivo, human
Source text: FIG. 1 is a graph of the dose proportionality of Cmax and AUC0-24 in a single dose study in human subjects of immediate release ajulemic acid.
as §1

[3] = single ascending dose, fasted subjects

Compound: CCCCCCC(C)(C)c1cc(O)c2c(c1)OC(C)(C)[C@@H]1CC=C(C(=O)O)C[C@@H]21 [ajulemic acid, (6aR,10aR)-3-(1,1-dimethylheptyl)-Δ8-tetrahydro-cannabinol-9-carboxylic acid]
- adverse event frequency: anorexia [1]: 11.1%
- adverse event frequency: dizziness [1]: 38.9%
- adverse event frequency: dry mouth [1]: 11.1%
- adverse event frequency: fatigue [1]: 11.1%
- adverse event frequency: feeling abnormal [1]: 11.1%
- adverse event frequency: inappropriate affect [1]: 11.1%
- adverse event frequency: nausea [1]: 16.7%
- adverse event frequency: orthostatic hypotension [1]: 11.1%
- adverse event frequency: somnolence [1]: 16.7%
- adverse event frequency: altered mood [2, 3]: 4.2%
- adverse event frequency: deja vu [2, 3]: 4.2%
- adverse event frequency: disorientation [2, 3]: 10.4%
- adverse event frequency: disturbance in attention [2, 3]: 4.2%
- adverse event frequency: dizziness [2, 3]: 33.3%
- adverse event frequency: dry mouth [2, 3]: 10.4%
- adverse event frequency: euphoric mood [2, 3]: 6.3%
- adverse event frequency: fatigue [2, 3]: 6.3%
- adverse event frequency: feeling drunk [2, 3]: 6.3%
- adverse event frequency: headache [2, 3]: 10.4%
- adverse event frequency: muscle spasms [2, 3]: 4.2%
- adverse event frequency: muscle tightness [2, 3]: 4.2%
- adverse event frequency: nausea [2, 3]: 20.8%
- adverse event frequency: pallor [2, 3]: 12.5%
- adverse event frequency: paraesthesia [2, 3]: 6.3%
- adverse event frequency: somnolence [2, 3]: 10.4%
- adverse event frequency: tachycardia [2, 3]: 6.3%
- adverse event frequency: tremor [2, 3]: 10.4%
- adverse event frequency: vomiting [2, 3]: 14.6%
- dose at which adverse events were observed ([2]; single dose study): ≥ 80 mg
